Experimental data published in paper PMC10328743, “5-Nitro-3-(2-(4-phenylthiazol-2-yl)hydrazineylidene)indolin-2-one derivatives inhibit HIV-1 replication by a multitarget mechanism of action” (Frontiers in Cellular and Infection Microbiology, 2023).
Where two headings read alike, the source gives them in different places.

Experiments:
HIV-1 RT-associated RDDP = biological target: T1, HIV-1 RT-associated RDDP (Human immunodeficiency virus type 1 group M subtype B, UniProt P04585); assay: HIV-1 RNA-dependent DNA polymerase activity determination; assay type: biochemical
T1 construct: The 1:1 ratio between the p66/p51 subunits was also verified; His tag (implied only by Ni-NTA IMAC purification); made in house; host or cells: Escherichia coli M15
Experimental: (§1) Escherichia coli strain M15 containing the p6HRT-prot vector (provided by Stuart Le Grice laboratory (NCI Frederick)) was grown to an optical density at 600 nm of 0.7 and induced with 1.7 mM of isopropyl β-D-1-thiogalactopyranoside (IPTG) for 4 h. Protein purification was carried out with a BioLogic LP system (Bio-Rad, Hercules, CA, USA) using a combination of immobilized metal affinity chromatography (IMAC) and ion exchange chromatography. Cell pellets were resuspended in lysis buffer (50 mM of sodium phosphate buffer, pH 7.8, containing 0.5 mg/mL of lysozyme), incubated on ice for 20 min, and, after the addition of NaCl to a final concentration of 0.3 M, were sonicated and centrifuged at 30,000 ×g for 1 h. The supernatant was loaded onto a Ni^2+-NTA-Sepharose column pre-equilibrated with loading buffer (50 mM of sodium phosphate buffer, pH 7.8, containing 0.3 M of NaCl, 10% glycerol, and 10 mM of imidazole) and washed thoroughly with wash buffer (50 mM of sodium phosphate buffer, pH 6.0, containing 0.3 M of NaCl, 10% glycerol, and 80 mM of imidazole). RT was eluted with an imidazole gradient in the wash buffer (0–0.5 M). Fractions were collected, and protein purity was checked by sodium dodecyl sulfate–polyacrylamide gel electrophoresis (SDS-PAGE) and found to be higher than 90%. The 1:1 ratio between the p66/p51 subunits was also verified. Enzyme-containing fractions were pooled and diluted 1:1 with 50 mM of sodium phosphate buffer, pH 7.0, containing 10% glycerol, and then loaded into a Hi-trap heparin HP GE (Healthcare LifeScience) pre-equilibrated with 10 column volumes of loading buffer (50 mM of sodium phosphate buffer, pH 7.0, containing 10% glycerol, and 150 mM of NaCl). The column was then washed with loading buffer, and the RT was eluted with Elute Buffer 2 (50 mM of sodium phosphate, pH 7.0, 10% glycerol, 1 M of NaCl). Fractions were collected, and the protein was dialyzed and stored in a buffer containing 50 mM of Tris-HCl, pH 7.0, 25 mM of NaCl, 1 mM of EDTA, and 50% glycerol. Catalytic activities and protein concentrations were determined. Enzyme-containing fractions were pooled, and aliquots were stored at −80°C.
RDDP activity was measured as previously reported in 25-µl volume containing 60 mM of Tris‐HCl buffer, pH 8.1, 8 mM of MgCl2, 60 mM of KCl, 13 mM of DTT, 2.5 µM of poly(A)-oligo(dT), 100 µM of dTTP, increasing concentrations of inhibitors, whose dilution were made in water, and different amounts of enzymes according to a linear range of the dose–response curve. The reaction mixture was incubated for 30 min at 37°C and then stopped by the addition of EDTA. Reaction products were detected by pico green addition and measured with a multilabel counter plate reader Victor 3, equipped with filters for 502/523 nm.

[1] = biological target: T2, HIV-1 RT-associated RNase H (Human immunodeficiency virus type 1 group M subtype B, UniProt P04585); assay: HIV-1 DNA polymerase-independent RNase H activity determination; assay type: biochemical
T2 construct: The 1:1 ratio between the p66/p51 subunits was also verified; His tag (implied only by Ni-NTA IMAC purification); made in house; host or cells: Escherichia coli M15
Experimental: as §1
HIV RT-associated RNase H activity was measured as described ([Corona et al., 2016b]) in a 100-µl reaction volume containing 50 mM of Tris-HCl buffer, pH 7.8, 6 mM of MgCl2, 1 mM of dithiothreitol (DTT), 80 mM of KCl, 0.25 µM of hybrid RNA/DNA 5′-[…]-Fluorescin-3′ (high-performance liquid chromatography (HPLC), dry, QC: Mass Check) (available from Metabion) 5′-Dabcyl-[…]-3′ (HPLC, dry, QC: Mass Check), increasing concentrations of inhibitors, whose dilution were made in water, and different amounts of enzymes according to a linear range of the dose–response curve. The reaction mixture was incubated for 1 h at 37°C and stopped by the addition of EDTA, and products were measured with a multilabel counter plate reader Victor 3 equipped with filters for 490/528 nm.

[2] = Viability of infected MT4 cells (cytotoxicity); assay type: cell-based; settings: human, infected MT4 cells viability, three independent experiments, average ± standard deviation
Experimental: (§2) HIV-1 replication was carried out in MT4 cells as previously reported ([Corona et al., 2016a]) using a molecular clone derived from the pNL4-3 ([Thierry et al., 2015]). A total of 120 ng of p24^gag antigen per 10^6 cells, corresponding to a multiplicity of infection (m.o.i.) of 0.3, was used for infection. […] Flow cytometry analysis was performed on a FACSCalibur flow cytometer (BD Biosciences, San Jose, CA, USA), and the results were analyzed using the […] software.

HIV-1 = HIV-1 replication inhibition in MT4 cells; assay type: cell-based
Experimental: as §2

[3] = wt HIV-1 RT, three independent experiments, average ± standard deviation, read-out: RDDP IC50
[4] = wt HIV-1 RT, three independent experiments, average ± standard deviation, read-out: RNase H IC50
[5] = Human immunodeficiency virus 1, MT4, viral replication in MT4 cells, three independent experiments, average ± standard deviation, read-out: HIV-1 EC50
[6] = Human immunodeficiency virus 1, MT4, read-out: HIV-1 EC50
[7] = wt HIV-1 RT, three independent experiments, average ± standard deviation

Compound | IC50 (HIV-1 RT-associated RDDP; [3]) [µM] | IC50 [1, 4] [µM] | CC50 ([2]; MT4 cells infected with HIV-1) [µM] | EC50 (HIV-1; [5]) [µM] | IC50 (HIV-1 RT-associated RDDP) [µM] | IC50 [1] [µM] | CC50 [2] [µM] | EC50 (HIV-1; [6]) [µM] | RNase H IC50 [1, 7]
O=C1Nc2ccc(Cl)cc2C1=NNc1nc(-c2ccc(Cl)cc2)cs1 [1b] | 30 ± 7.5 | 12 ± 2.3 | > 100 | > 100 | – | – | – | – | –
Cn1c(-c2ccc(Cl)cc2)cs/c1=N\N=C1/C(=O)Nc2ccc([N+](=O)[O-])cc21 [1c] | 24 ± 3 | 8.2 ± 1 | 42 ± 8 | > 42 | – | – | – | – | –
O=C1Nc2ccc([N+](=O)[O-])cc2/C1=N/Nc1nc(-c2ccc(F)cc2)cs1 [2a] | 9.5 ± 0.5 | 5.1 ± 2 | > 100 | > 100 | – | – | – | – | –
O=C1Nc2ccc(Cl)cc2/C1=N/Nc1nc(-c2ccc(F)cc2)cs1 [2b] | 7.5 ± 1.5 | 4.5 ± 0.2 | 56 ± 6 | > 56 | – | – | – | – | –
Cn1c(-c2ccc(F)cc2)cs/c1=N\N=C1/C(=O)Nc2ccc([N+](=O)[O-])cc21 [2c] | 21 ± 1 | 5.6 ± 0.6 | 7 ± 1.6 | > 7 | – | – | – | – | –
O=C1Nc2ccc(Cl)cc2/C1=N/Nc1nc(-c2ccc(Br)cc2)cs1 [3b] | 8.3 ± 0.6 | 4.4 ± 0.1 | 95 ± 14 | > 95 | – | – | – | – | –
Cn1c(-c2ccc(Br)cc2)cs/c1=N\N=C1/C(=O)Nc2ccc([N+](=O)[O-])cc21 [3c] | 19.5 ± 3.3 | 7.7 ± 1.2 | 25 ± 3.1 | > 25 | – | – | – | – | –
O=C1Nc2ccc([N+](=O)[O-])cc2/C1=N/Nc1nc(-c2ccc([N+](=O)[O-])cc2)cs1 [4a] | – | – | – | – | 21 ± 3 | 7.6 ± 1.4 | > 100 | > 100 | –
O=C1Nc2ccc(Cl)cc2/C1=N/Nc1nc(-c2ccc([N+](=O)[O-])cc2)cs1 [4b] | 14.9 ± 2.7 | 15.3 ± 1.5 | 50 ± 12 | > 50 | – | – | – | – | –
Cn1c(-c2ccc([N+](=O)[O-])cc2)cs/c1=N\N=C1/C(=O)Nc2ccc([N+](=O)[O-])cc21 [4c] | – | – | – | – | 6 ± 0.5 | 1.9 ± 0.2 | 5.5 ± 0.9 | > 5.5 | –
O=C1Nc2ccc([N+](=O)[O-])cc2/C1=N/Nc1nc(-c2ccc(-c3ccccc3)cc2)cs1 [5a] | 12 ± 3 | 7.1 ± 0.1 | > 100 | > 100 | – | – | – | – | –
O=C1Nc2ccc(Cl)cc2/C1=N/Nc1nc(-c2ccc(-c3ccccc3)cc2)cs1 [5b] | 38 ± 5 | 13.2 ± 1.6 | – | – | – | – | – | – | –
Cn1c(-c2ccc(-c3ccccc3)cc2)cs/c1=N\N=C1/C(=O)Nc2ccc([N+](=O)[O-])cc21 [5c] | 11.4 ± 2.2 | 6.1 ± 1.1 | 7 ± 1.4 | > 7 | – | – | – | – | –
N#Cc1ccc(-c2csc(N/N=C3\C(=O)Nc4ccc([N+](=O)[O-])cc43)n2)cc1 [6a] | 9.3 ± 0.3 | 6 ± 0.1 | > 100 | > 100 | – | – | – | – | –
N#Cc1ccc(-c2csc(N/N=C3\C(=O)Nc4ccc(Cl)cc43)n2)cc1 [6b] | 34 ± 6 | 7.8 ± 0.1 | 95 ± 5 | > 95 | – | – | – | – | –
Cn1c(-c2ccc(C#N)cc2)cs/c1=N\N=C1/C(=O)Nc2ccc([N+](=O)[O-])cc21 [6c] | 12.1 ± 1.6 | 100 ± 5 | – | – | – | – | – | – | active only toward the RDDP function

Compound | IC50 (HIV-1 RT-associated RDDP; [3]) [µM] | IC50 [1, 4] [µM] | CC50 ([2]; MT4 cells infected with HIV-1) [µM] | EC50 (HIV-1; [5]) [µM] | IC50 (HIV-1 RT-associated RDDP) [µM] | IC50 [1] [µM] | CC50 [2] [µM] | EC50 (HIV-1; [6]) [µM] | RNase H IC50 [1, 7]
O=C1Nc2ccc([N+](=O)[O-])cc2/C1=N/Nc1nc(-c2ccc(F)cc2F)cs1 [7a] | 11.5 ± 0.5 | 6 ± 0.1 | – | – | – | – | – | – | –
O=C1Nc2ccc(Cl)cc2/C1=N/Nc1nc(-c2ccc(F)cc2F)cs1 [7b] | 10 ± 1 | 6 ± 1.5 | – | – | – | – | – | – | –
O=C1Nc2ccc([N+](=O)[O-])cc2/C1=N/Nc1nc(-c2cccc([N+](=O)[O-])c2)cs1 [8a] | 18.5 ± 0.5 | 6.5 ± 0.5 | – | – | – | – | – | – | –
O=C1Nc2ccc(Cl)cc2/C1=N/Nc1nc(-c2cccc([N+](=O)[O-])c2)cs1 [8b] | 72 ± 13 | 22 ± 1 | – | – | – | – | – | – | –
Cn1c(-c2cccc([N+](=O)[O-])c2)cs/c1=N\N=C1/C(=O)Nc2ccc([N+](=O)[O-])cc21 [8c] | 8.7 ± 1.5 | 100 ± 20 | – | – | – | – | – | – | active only toward the RDDP function
O=C1Nc2ccc([N+](=O)[O-])cc2/C1=N/Nc1nc(-c2ccc(Cl)c(Cl)c2)cs1 [9a] | 11.5 ± 0.5 | 6.5 ± 0.5 | > 100 | > 100 | – | – | – | – | –
Cn1c(-c2ccc(Cl)c(Cl)c2)cs/c1=N\N=C1/C(=O)Nc2ccc([N+](=O)[O-])cc21 [9c] | 15.1 ± 0.5 | 1.9 ± 0.7 | 5 ± 1.3 | > 5 | – | – | – | – | –
Cc1ccc(-c2csc(NN=C3C(=O)Nc4ccc(Cl)cc43)n2)cc1 [10b] | 18 ± 0.7 | 10 ± 1.4 | > 100 | > 100 | – | – | – | – | –
Cc1ccc(-c2cs/c(=N\N=C3/C(=O)Nc4ccc([N+](=O)[O-])cc43)n2C)cc1 [10c] | 16.9 ± 2.3 | 6.8 ± 1.4 | 10 ± 2.7 | > 10 | – | – | – | – | –
COc1ccc(-c2csc(N/N=C3\C(=O)Nc4ccc([N+](=O)[O-])cc43)n2)cc1 [11a] | 14.5 ± 0.5 | 8.5 ± 0.6 | > 100 | > 100 | – | – | – | – | –
COc1ccc(-c2csc(N/N=C3\C(=O)Nc4ccc(Cl)cc43)n2)cc1 [11b] | 16.2 ± 2.8 | 7 ± 1 | 70 ± 9 | > 70 | – | – | – | – | –
COc1ccc(-c2cs/c(=N\N=C3/C(=O)Nc4ccc([N+](=O)[O-])cc43)n2C)cc1 [11c] | 11.2 ± 2.2 | 4 ± 1.4 | 2 ± 0.4 | > 2 | – | – | – | – | –
O=C1Nc2ccc([N+](=O)[O-])cc2/C1=N/Nc1nc(-c2ccccc2)cs1 [12a] | – | 6 ± 1 | > 100 | > 100 | 13 ± 2 | – | – | – | –
O=C1Nc2ccc(Cl)cc2/C1=N/Nc1nc(-c2ccccc2)cs1 [12b] | 9.4 ± 1.1 | 5.4 ± 0.6 | 70 ± 5 | > 70 | – | – | – | – | –
Cn1c(-c2ccccc2)cs/c1=N\N=C1/C(=O)Nc2ccc([N+](=O)[O-])cc21 [12c] | 8.1 ± 0.1 | 3.6 ± 0.8 | 10 ± 1.2 | > 10 | – | – | – | – | –
